In experiment [1] the test system is A549. The experiment can be described thus: Growth inhibition of human A549 cells at 20 uM after 72 hrs by SRB assay relative to control. Type of experiment: functional. To be noted: A549, 72 h, read-out: GI.
Experiment [2] has as its system MCF7. The experiment can be described thus: Growth inhibition of human MCF7 cells at 20 uM after 72 hrs by SRB assay relative to control. Conditions: MCF7, 72 h, read-out: GI. The experiment is classed as functional.
The nature of experiment [3]: Growth inhibition of human U87 cells at 20 uM after 72 hrs by SRB assay relative to control. The experiment is classed as functional, U-87MG ATCC. To be noted: U-87 MG, read-out: GI.
In experiment [4] the test system is A-375. The experiment in a line: Growth inhibition of human A375 cells at 20 uM after 72 hrs by SRB assay relative to control. The experiment is classed as functional. To be noted: A-375, 72 h, read-out: GI.
For experiment [5], the system named is HeLa. The experiment in a line: Growth inhibition of human HeLa cells at 20 uM after 72 hrs by SRB assay relative to control. The experiment is classed as functional. To be noted: read-out: GI.
For experiment [6], the system named is A549. The experiment in a line: Antiproliferative activity against human A549 cells after 72 hrs by SRB assay. Type of experiment: functional, cell-based. To be noted: A549, 72 h.
Experiment [7] concerns A-375. The experiment in a line: Antiproliferative activity against human A375 cells after 72 hrs by SRB assay. Type of experiment: functional, cell-based. To be noted: A-375, 72 h.
Experiment [8] has as its system MCF7. The experiment in a line: Antiproliferative activity against human MCF7 cells after 72 hrs by SRB assay. Type of experiment: functional, cell-based. Conditions: MCF7, 72 h.
The nature of experiment [9]: Antiproliferative activity against human U87 cells after 72 hrs by SRB assay. Type of experiment: functional, cell-based, U-87MG ATCC. Conditions: U-87 MG.
Experiment [10] relates to NCI-H460. The experiment can be described thus: Antiproliferative activity against human NCI-H460 cells after 72 hrs by SRB assay. Conditions: NCI-H460, 72 h. Type of experiment: functional, cell-based.
In experiment [11] the test system is HEK293. The experiment in a line: Antiproliferative activity against HEK293 cells after 72 hrs by SRB assay. To be noted: Homo sapiens, HEK293, 72 h. The experiment is classed as cell-based.

`OCc1cccc(-c2cc(N3CCOCC3)c3ncc(C4CCN(Cc5cccnc5)CC4)n3n2)c1`: the inhibition of growth at 20 µM was 30.2% in experiment [1]; 46.2% in experiment [2]; 7.8% in experiment [3]; 12.5% in experiment [4]; 19.4% in [5].
On the same counts, the results for `C[C@H]1COCCN1c1cc(-c2cnc(N)nc2)nn2c(C3CCN(S(C)(=O)=O)CC3)cnc12` are 39.5%, 24.3%, 1.5%, 17.5% and 4.4%.
For `COc1ccc(-c2cc(N3CCOC[C@@H]3C)c3ncc(C4CCN(C(=O)c5cccnc5)CC4)n3n2)cc1CO` the same measures were 46.8%, 42.1%, 4.3%, 19.6% and 17.8%.
For `C[C@H]1COCCN1c1cc(-c2cnc(N)nc2)nn2c(C3CCN(Cc4cccnc4)CC3)cnc12` the same measures were 44.8%, 34.2%, 10.8%, 14.7% and 30.5%.
In the case of `C[C@H]1COCCN1c1cc(-c2ccc3[nH]ccc3c2)nn2c(C3CCN(C(=O)c4cccnc4)CC3)cnc12`, the inhibition of growth at 20 µM in experiment [1] stood at 57%; in experiment [2], 75.6%; in experiment [3], 58.3%; in [4], 96.7%; in [5], 34.2%. Moreover, the IC50 in [6] is 11.6 µM; in experiment [7] it was 4.1 µM; in experiment [8] it was 9.9 µM; in [9], 10 µM.
As for `C[C@H]1COCCN1c1cc(-c2ccc3[nH]ccc3c2)nn2c(C3CCN(Cc4cccnc4)CC3)cnc12`, the inhibition of growth at 20 µM in [1] was determined as 84%; in [2], 96.5%; in [3], 84.4%; in experiment [4], 96.7%; in [5], 73.6%. For the same compound, the IC50 worked out at 7.7 µM in experiment [6], 3.4 µM in experiment [7], 6.3 µM in experiment [8] and 7.9 µM in experiment [9].
Regarding `O=C(Nc1ccncc1)Nc1ccc(-c2cc(N3CC4CCC(C3)O4)c3nccn3n2)cc1`, the IC50 in [6] is 2.3 µM; in [7] it was 10.9 µM; in [8], 6.3 µM; in [9] it was 11.7 µM; in experiment [10], 2.2 µM; in [11], 3.4 µM.
With `C[C@H]1COCCN1c1cc(-c2ccc3[nH]ccc3c2)nn2c(C3CCN(S(C)(=O)=O)CC3)cnc12`, the inhibition of growth at 20 µM in experiment [1] was found to be 34%; in experiment [2], 55.3%; in experiment [3], 45.4%; in experiment [4], 29.4%; in experiment [5], 47.4%.
For `COC(=O)N1CCC(c2cnc3c(N4CCOC[C@@H]4C)cc(-c4ccc5[nH]ccc5c4)nn23)CC1` the same measures were 16%, 43.2%, 26.4%, 33.8% and 56%.
Take `COc1ccc(NC(=O)Nc2ccc(-c3cc(N4CCOC[C@@H]4C)c4nccn4n3)cc2)cc1`: the IC50 in experiment [6] amounted to 2.7 µM; in experiment [7] it was 7.7 µM; in experiment [8], 5.7 µM; in [9], 7.9 µM; in experiment [10], 4.2 µM; in experiment [11] it was 10.5 µM.
Take `CN1CCN(c2ccc(NC(=O)Nc3ccc(-c4cc(N5CCOCC5)c5nccn5n4)cc3)cc2)CC1`: the IC50 in [6] was 3.3 µM; in experiment [7] it was 1.6 µM; in experiment [8], 4.3 µM; in [9] it was 4.9 µM; in [10], 3 µM; in [11] it was 7.8 µM.
`O=C(Nc1ccc(-c2cc(N3CC4CCC(C3)O4)c3nccn3n2)cc1)Nc1cccnc1`: the IC50 amounted to 1.1 µM in experiment [6]; 4.7 µM in [7]; 37.9 µM in experiment [8]; 5.8 µM in experiment [9]; 0.65 µM in experiment [10]; 9 µM in experiment [11].
Consider `CN1CCN(c2ccc(NC(=O)Nc3ccc(-c4cc(N5CC6CCC(C5)O6)c5nccn5n4)cc3)cc2)CC1`, for which the IC50 amounted to 3.1 µM in experiment [6]; 1.8 µM in experiment [7]; 2.9 µM in [8]; 4.3 µM in [9]; 2.9 µM in experiment [10]; 12.1 µM in experiment [11].
For the compound `COC(=O)N1CCC(c2cnc3c(N4CCOC[C@@H]4C)cc(-c4cccc(CO)c4)nn23)CC1`, the inhibition of growth at 20 µM is 40.4% in [1]; 34.6% in experiment [2]; -5.2% in experiment [3]; 16.3% in experiment [4]; 0.2% in experiment [5].
Regarding `C[C@H]1COCCN1c1cc(-c2cccc(CO)c2)nn2c(C3CCN(S(C)(=O)=O)CC3)cnc12`, the inhibition of growth at 20 µM is 48.1% in experiment [1]; 36.1% in experiment [2]; 4.5% in experiment [3]; 11.6% in experiment [4]; -2.3% in experiment [5].
On the same counts, the results for `COc1ccc(-c2cc(N3CCOC[C@@H]3C)c3ncc(C4CCN(S(C)(=O)=O)CC4)n3n2)cc1CO` are 49.6%, 45.1%, 4%, 21.2% and 12.7%.
Consider `C[C@H]1COCCN1c1cc(-c2ccc(NC(=O)Nc3ccc(N4CCN(C)CC4)cc3)cc2)nn2ccnc12`, for which the IC50 in experiment [6] was found to be 1.5 µM; in [7], 2 µM; in experiment [8], 3.5 µM; in [9] it was 2.6 µM; in experiment [10], 2 µM; in experiment [11] it was 8.4 µM.
As to `COc1ccc(-c2cc(N3CCOC[C@@H]3C)c3ncc(C4CCN(Cc5cccnc5)CC4)n3n2)cc1CO`, the inhibition of growth at 20 µM in experiment [1] worked out at 65%; in [2], 37.9%; in [3], 11.7%; in experiment [4], 15.2%; in [5], 50.3%.
For the compound `O=C(Nc1ccncc1)Nc1ccc(-c2cc(N3CCOCC3)c3nccn3n2)cc1`, the IC50 in experiment [6] amounted to 2.8 µM; in [7] it was 7.2 µM; in experiment [8], 21.9 µM; in experiment [9], 11.1 µM; in experiment [10], 20.7 µM; in experiment [11] it was 12.4 µM.
For `C[C@H]1COCCN1c1cc(-c2cnc(N)nc2)nn2c(C3CCN(C(=O)c4cccnc4)CC3)cnc12`, the inhibition of growth at 20 µM in experiment [1] stood at 42.1%; in [2], 32%; in [3], 11.7%; in [4] it was 17.8%; in [5] it was 9.4%.
Regarding `O=C(Nc1ccc(-c2cc(N3CCOCC3)c3nccn3n2)cc1)Nc1cccnc1`, the IC50 in experiment [6] was 0.22 µM; in experiment [7], 15.7 µM; in experiment [8], 17.7 µM; in experiment [9], 20 µM; in [10], 1 µM; in [11] it was 1.4 µM.

These data come from ChEMBL document CHEMBL4007445, “Design, synthesis, and biological evaluation of imidazo[1,2-b]pyridazine derivatives as mTOR inhibitors” (Eur J Med Chem, 2017).
